Some results are limits rather than exact numbers.

The results in this text go back to patent US4407810A, “Thiazol-2-yl-oxamic acid derivatives, and therapeutic agents containing these compounds” (BASF Aktiengesellschaft, priority 1980, dated 1983).

The test system of series [1] is passive cutaneous anaphylaxis (PCA). The experiment in a line: anti-allergic action, passive cutaneous anaphylaxis (PCA) model in rats. It counts as in vivo. The settings on record: for ED50: Rattus norvegicus, dose which reduces diameter of color patch by 50% vs non-medicated controls, read-out: Inhibition of PCA in rats (oral), ED 50%; for times more active than Comparative Compound V1 / R.A. (relative activity): PCA in rats; for times more active than Comparative Compound V1: after oral administration; for R.A. (relative activity): relative to V1 (=1). As for the experimental part: The anti-allergic action was tested on rats, using the passive cutaneous anaphylaxis (PCA) model.
Narcotized male rats (100-140 g) are sensitized by intradermal injection (into the shaved dorsal skin) of 0.1 ml of an ovalbumin antiserum. After a sensitization period of about 48 hours, the treatment (intraperitoneal or oral administration) is carried out with various dosages (10 animals/dose)of the test substances. 15-20 minutes after treatment, an antigen/Evans blue mixture (10 mg/kg of ovalbumin in 2% strength Evans blue solution) is intravenously injected into the test animals. 30 minutes later, the animals are sacrificed, the dorsal skin is removed and the diameter of the circular blue coloration is measured on the inner surface. The size of the color patches of untreated control animals can be standardized. Anti-allergic substances reduce the diameter of the color patch by an amount dependent on the dose. The ED 50% is quoted as the dose which reduces the diameter of the color patch by 50% relative to that of non-medicated control animals.

Series [2] in a line: acute toxicity, rats, oral. The settings on record: rat, in vivo, Sprague-Dawley rats, 14 days post-observation, read-out: LD 50, rats oral. As for the experimental part: (§1) In addition to the anti-allergic action, the acute toxicity was determined for intraperitoneal administration, using groups of 2 NMRI mice, each weighing 20-26 g, and for oral administration, using groups of 2 Sprague-Dawley rats, each weighing 120-150 g. The LD 50 was determined on groups of 10 NMRI mice, each weighing 20-26 g, after intraperitoneal administration. The post-observation period was 14 days.

Series [3] is described as follows: acute toxicity (LD 50), mice, intraperitoneal. Particulars: mouse, in vivo, ip, NMRI mice, 14 days post-observation. As for the experimental part:
as §1

Consider `O=C(O)c1cc(=O)c2c(OCC(O)COc3cccc4oc(C(=O)O)cc(=O)c34)cccc2o1` [Cromolyne, reference compound], for which, in series [1] (rats, oral), the ED50 worked out at 100 mg/kg. In addition, the “activity in PCA (in words)” value in series [1] (rats, oral, up to 100 mg/kg) is “inactive”. In addition, the LD50 at 336 h in series [2] was more than 2150 mg/kg.
On to `COCCOC(=O)C(=O)Nc1nc(-c2ccccc2)cs1` [Example 7, 2-Methoxyethyl N-(4-phenyl-thiazol-2-yl)-oxamate], for which the “times more active than Comparative Compound V1” value in series [1] is 3.87 times. Besides, the “R.A. (relative activity)” value in series [1] (oral) is 3.87. For the same compound, the ED50 in series [1] (rats, oral) was 2.24 mg/kg. Besides, the results for the LD50 at 336 h in series [3] and in series [2] were 655 mg/kg and more than 2150 mg/kg, respectively.
For `CCOCCOC(=O)C(=O)Nc1nc(-c2ccccc2)cs1` [Example 9, 2-Ethoxyethyl N-(4-phenyl-thiazol-2-yl)-oxamate], the “times more active than Comparative Compound V1” value in series [1] turned out to be 227 times. In series [1] (oral), the “R.A. (relative activity)” value is 227. The ED50 in series [1] (rats, oral) amounted to 0.0382 mg/kg. The LD50 at 336 h in series [3] was 956 mg/kg; in series [2] it was more than 2150 mg/kg.
Consider `COCCOCCOC(=O)C(=O)Nc1nc(-c2ccccc2)cs1` [Example 11, 2-(ω-Methoxyethyleneoxy)-ethyl N-(4-phenyl-thiazol-2-yl)-oxamate], for which the “R.A. (relative activity)” value in series [1] (oral) is 4.01. Moreover, the ED50 in series [1] (rats, oral) is 2.16 mg/kg. In addition, the LD50 at 336 h was 705 mg/kg in series [3] and more than 2150 mg/kg in series [2].
For the compound `CCOCCOC(=O)C(=O)Nc1nc(-c2ccc(OC)cc2)cs1` [Example 14, 2-Ethoxyethyl N-[4-(4-methoxyphenyl)-thiazol-2-yl]-oxamate], the “R.A. (relative activity)” value in series [1] (oral) was determined as 14.0. In addition, the ED50 in series [1] (rats, oral) is 0.619 mg/kg. Also, the LD50 at 336 h in series [3] was approximately 1000 mg/kg.
In the case of `CCOC(=O)C(=O)Nc1nc(-c2ccccc2)cs1` [Example V1, ethyl N-(4-phenyl-thiazol-2-yl)-oxamate, reference compound], the “R.A. (relative activity)” value in series [1] (oral) came to 1. Further, the ED50 in series [1] (rats, oral) was determined as 8.67 mg/kg. In addition, the LD50 at 336 h in series [3] is approximately 681 mg/kg; in series [2] it was more than 2150 mg/kg.
